System: cut flower of a carnation (variety "Rosybabara")
Test: Withering of carnation cut flower after storage, Example 10
Type: in vivo
Details: 1 ppm, after storage 20 degrees C 14 days, average score of 5 plants (0=healthy)
Procedure: Using a cut flower (5 ornamental plants were used per group) of a carnation (variety “Rosybabara”) as an agricultural product, the following experiment was performed. […]
2) An ornamental plant was placed into a sealed chamber, and a pressure in the chamber was reduced to 12.5 kPa. Subsequently, 1-methylcyclopropene was placed therein to the concentration in the chamber of 1 ppm, and contact-treated for 1 minute under the reduced pressure (12.5 kPa).
3) An ornamental plant was placed in a sealed chamber. Subsequently, a pressure in the chamber was reduced to 12.5 kPa and the ornamental plant was kept in the chamber under the reduced pressure for 1 minute.
An ornamental plant which had been subjected to treatment of the above-mentioned 1), 2) or 3) was stored at 20 degrees C for 14days, and an extent of withering of an ornamental plant was assessed by naked eyes. Assessment criteria were 4 stages; 0=healthy, 1=slight withering, 2=intermediate withering, […], and an average of assessment in 5 ornamental plants was calculated. Note that the treatment above-mentioned 1), 2) or 3) was performed on a day of harvesting an ornamental plant. In addition, also regarding an ornamental plant undergoing no treatment of 1), 2) or 3) (non-treatment), the similar storage was performed, and the above-mentioned index was measured.

SMILES: CC1=CC1 [1-MCP, 1-methylcyclopropene]
- Extent of withering (Normal pressure 1 hour): 0.8
- Extent of withering (Normal pressure 24 hours): 0.4
- Extent of withering (Reduced pressure (12.5 kPa) 1 minute): 0.4

Reference: patent publication US20040192554A1, “Technique for effectively treating an agricultural product with a 1-substituted-cyclopropene” (priority 2003, published 2004)
